Test results as given in patent US5395823A, “Neuropeptide Y agonists and partial agonists” (Merrell Dow Pharmaceuticals Inc., priority 1993, dated 1995).

Target: receptors for neuropeptide Y (porcine spleen crude membranes)
Experiment: 125I-Bolton-Hunter-neuropeptide Y binding in porcine spleen crude membranes
Details: competition with 0.1 nM BHNPY, room temperature 2 hr, pH 7.4
Protocol: 145:21-9 (1988). ^125 I-Bolton-Hunter-neuropeptide Y (BHNPY; Amersham) binding was carried out in porcine spleen crude membranes. Membranes from frozen spleen were prepared as described previously for tachykinin peptide binding studies (Buck et al., 1984). An aliquot of membrane preparation (approximately 15 mg tissue) was incubated at room temperature for 2 hr in buffer (pH 7.4) containing the peptide analog, 130 mM NaCl, 2.7 mM KCl, 2 mM MgCl2, 1.8 mM CaCl2, 20 mM HEPES, 4 mg/ml BSA, 40 μg/ml bacitracin, 4 μg/ml leupeptin and […] chymostatin. BHNPY was included in a concentration of 0.1 nM and non-specific binding was determined by the inclusion of 1 μM pNPY. Samples were rapidly filtered over Whatman GF/C filters presoaked overnight in 0.5% histone (type II-AS; Sigma) and washed two times with ice-cold, plain HEPES-salt buffer (pH 7.4). IC50 values for test peptides were calculated from 6 to 10 point competition curves.

IC50: < 50 nM
Substance: Y--P--S--K--P--D--N--P--G--E--D--A--P--A--E--E--L--S--Y--Y--A--A--L--R--H- -Y--L--N--L--L--T--R--Q--R--Y--# [Example 1]
